Data as given in the supplement of paper PMC10307832.

What was measured:
Assay in all cases: relative viability (nuclei count vs DMSO), 5 days (fraction); higher = more cells survive
[1] = compound: O[C@@H](COc1cccc2ncccc12)CN1CCN([C@@H]2c3ccccc3[C@@H]3[C@H](c4ccccc42)C3(F)F)CC1 [Zosuquidar] + N=C(N)NC(=N)NCCc1ccccc1 [Phenformin] (partner 250 µM)
Summary of the method: (§1)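 Lung cancer cell lines, seeded in 1536-well plates, were treated the following day by pin tool with a single drug or with five library-drug doses (not always all listed) in √10 steps on top of a fixed anchor-drug dose. Cells were fixed and nuclei stained in one step after 5 days, and nuclei were counted. Relative viability is the nuclei count for treated wells divided by that for vehicle wells, reported as medians of duplicate plates.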

[2] = compound: COc1cc2nccc(Oc3ccc(NC(=O)C4(C(=O)Nc5ccc(F)cc5)CC4)cc3)c2cc1OC [Cabozantinib] + C[C@]1(O)C[C@@H](c2nc(-c3ccc4ccc(-c5ccccc5)nc4c3)c3c(N)nccn32)C1 [Linsitinib] (partner 1 µM)
Summary of the method: as §1

[3] = compound: C1=CC(=CC=C1NC(=S)NNC2=C(C=C(C=C2[N+](=O)[O-])C(F)(F)F)[N+](=O)[O-])F [Kobe2602] + O=C(CCCCCCC(=O)Nc1ccccc1)NO [Vorinostat] (partner 1 µM)
Summary of the method: as §1

[4] = compound: C1=CC(=CC=C1NC(=S)NNC2=C(C=C(C=C2[N+](=O)[O-])C(F)(F)F)[N+](=O)[O-])F [Kobe2602] + Cc1cc(Nc2cc(N3CCN(C)CC3)nc(Sc3ccc(NC(=O)C4CC4)cc3)n2)n[nH]1 [Tozasertib] (partner 0.1 µM)
Summary of the method: as §1

Cell Line | relative viability ([1]; first compound 0.01 µM) | relative viability ([1]; first compound 0.03162 µM) | relative viability ([1]; first compound 0.1 µM) | relative viability ([1]; first compound 0.3162 µM) | relative viability ([1]; first compound 1 µM) | relative viability ([2]; first compound 0.02 µM) | relative viability ([2]; first compound 0.06325 µM) | relative viability ([2]; first compound 0.2 µM) | relative viability ([2]; first compound 0.6325 µM) | relative viability ([2]; first compound 2 µM) | relative viability ([3]; first compound 0.2 µM) | relative viability ([3]; first compound 0.6325 µM) | relative viability ([3]; first compound 2 µM) | relative viability ([3]; first compound 6.325 µM) | relative viability ([3]; first compound 20 µM) | relative viability ([4]; first compound 0.2 µM) | relative viability ([4]; first compound 0.6325 µM) | relative viability ([4]; first compound 2 µM) | relative viability ([4]; first compound 6.325 µM) | relative viability ([4]; first compound 20 µM)
NCI-H1915 | 0.377 | 0.386 | 0.347 | 0.38 | 0.37 | 1.1 | 1.12 | 1.09 | 1.01 | 1.12 | 0.523 | 0.549 | 0.478 | 0.534 | 0.557 | 0.422 | 0.43 | 0.393 | 0.438 | 0.399
NCI-H1944 | 0.19 | 0.192 | 0.196 | 0.225 | 0.196 | – | 1.18 | 1.09 | 1.12 | 1.07 | 0.532 | 0.64 | 0.538 | 0.531 | 0.629 | 0.264 | 0.267 | 0.262 | 0.245 | 0.279
NCI-H1975 | 0.397 | 0.378 | 0.417 | 0.42 | 0.399 | 1 | 1.09 | 0.895 | 0.965 | 0.898 | 0.68 | 0.74 | 0.626 | 0.678 | 0.701 | 0.614 | 0.432 | 0.511 | 0.689 | 0.355
NCI-H1993 | 0.422 | 0.596 | 0.438 | 0.476 | 0.533 | 0.776 | 0.722 | 0.712 | 0.69 | 0.718 | 0.737 | 0.817 | 0.782 | 0.586 | 0.728 | 0.515 | 0.549 | 0.573 | 0.53 | 0.56
NCI-H2009 | 0.503 | 0.47 | 0.481 | 0.518 | 0.498 | 1.23 | 1.17 | 1.18 | 1.19 | 1.23 | 0.715 | 0.783 | 0.763 | 0.752 | 0.692 | 0.713 | 0.801 | 0.619 | 0.715 | 0.7
NCI-H2023 | 0.387 | 0.426 | 0.385 | 0.408 | 0.396 | 0.637 | 0.76 | 0.465 | 0.459 | 0.316 | 0.56 | 0.75 | 0.566 | 0.481 | 0.317 | 0.253 | 0.326 | 0.244 | 0.175 | 0.157
NCI-H2085 | 0.736 | 0.682 | 0.479 | 0.877 | 0.69 | 0.93 | 0.868 | 0.918 | 0.847 | 0.875 | 0.772 | 0.817 | 0.794 | 0.765 | 0.733 | 0.736 | 0.772 | 0.775 | 0.567 | 0.751
NCI-H2087 | 0.426 | – | 0.363 | 0.545 | 0.492 | 1.03 | 1 | 1.06 | 1.02 | 1 | 0.628 | 0.799 | 0.64 | 0.714 | 0.568 | 0.282 | 0.247 | 0.251 | 0.243 | 0.246
NCI-H2126 | 0.544 | 0.542 | – | 0.539 | 0.532 | 0.727 | 0.755 | 0.735 | 0.733 | 0.701 | 0.811 | 0.819 | 0.737 | 0.76 | 0.855 | 0.856 | 0.821 | 0.812 | 0.733 | 0.591
